Data taken from patent publication US20060234986A1, “Use of TAFI inhibitors for enhanced myocardial reperfusion and facilitated PCI” (Schering Aktiengesellschaft, priority 2005, published 2006).

What was measured:
Format in all cases: in vivo
[1] = tested on: bleeding time after sectioning of the cuticle; test: Dog cuticle bleeding time
Text: (§1) A dog femoral artery thrombosis model was used to test that TAFI inhibition by i.v. administration of a potent and selective TAFI inhibitor would potentiate fibrinolysis. A stable, occlusive thrombus was formed using FeCl2 to chemically injure the arterial wall. Thrombotic occlusion and reperfusion (effective fibrinolysis) were monitored by measuring blood flow with a Doppler flow probe. Since no spontaneous reperfusion is observed in this model, a sub-maximal dose of tPA was used to enhance baseline activity. […] Bleeding propensity was measured by determining the time required for bleeding to stop following a series of standardized wounds (sectioning of the cuticle).
(§2) Male Beagle dogs (8-12 kg) were anesthetized with isoflurane (2-3%). […] Femoral artery blood flow, systemic blood pressure, heart rate and breathing patterns were monitored and recorded on a data acquisition system during the experiment. […] The time for the cut to cease bleeding was recorded as the primary bleeding time.
(§3) After stabilization of hemodynamic parameters, a blood sample was taken for drug levels. […] Bleeding time was determined and a blood sample was collected 20 min after the start of the tPA infusion. […]

[2] = tested on: dog femoral artery occlusive thrombus; test: Dog femoral artery thrombosis model (FeCl2 injury), reperfusion and time to occlusion; settings: TAFI inhibitor pre-treatment (10 min before FeCl2), n=6, p=ns vs control group
Text: as §1, §2, §3

[3] = tested on: LPS-induced impairment of fibrinolysis (lung fibrin deposition); test: Rat lung fibrin deposition model (batroxobin, 125I-fibrinogen, LPS)
Description: This model was used to test the hypothesis that inhibition of endogenous TAFI can enhance fibrinolysis. Batroxobin, a thrombin-like enzyme, was used to hydrolyze fibrinogen to fibrin, which deposits in tissues, especially in the lungs. Following tissue deposition, fibrin is lysed into fibrin degradation products, which return to the blood. In this study, ^125I-labeled fibrinogen was given and tissue accumulation of fibrin and the subsequent fibrinolysis were assessed by the mobilization of ^125I from blood to tissue (generation of ^125I-fibrin from ^125I-fibrinogen) and back to blood (generation of ^125I-fibrin degradation products from ^125I-fibrin) after batroxobin injection. LPS has been known to stinulate the release of numerous endogenous factors that can inhibit fibrinolytic activity, including TAFI, thus preventing spontaneous fibrinolysis in the lungs.
Male Sprague-Dawley rates (300-350g) were randomly divided into three groups: • (1) untreated (controls) • (2) treated with LPS • (3) treated with LPS+TAFI inhibitor. Animals assigned to receive LPS (0.5 mg/kg, iv) were injected 3 hours before batroxobin injection. Twenty minutes before batroxobin injection, all animals were anesthetized with pentobarbital (65 mg/kg, ip), and saline-filled catheters were placed into the right carotid artery and left jugular vein for blood collection and drug injection, respectively. ^125I-fibrinogen (1 mCi) was administered to all animals 10 min. prior to batroxobin injection and animals assigned to receive the TAFI inhibitor (10 mg/kg) were injected 5 min. before the batroxobin. The rats were sacrificed at either 5 or 30 min after batroxobin injection.

| Compound | Bleeding time ([1]; dog, in vivo) | Time to occlusion induced by FeCl2 [2] [min] | Bleeding time ([1]; TAFI inhibitor 10 mg/kg pre-thrombus + tPA 10 μg/kg/min, versus tPA alone) | CPM in the lungs versus control rats ([3]; LPS + TAFI inhibitor 10 mg/kg, 30 min after batroxobin) | Blood CPM and 125I in the lungs ([3]; LPS + TAFI inhibitor 10 mg/kg, 30 min after batroxobin, versus LPS-treated rats) | Radioactive readings in blood or lungs ([3]; TAFI inhibitor 10 mg/kg in LPS-treated rats, 5 min after batroxobin, in relation to LPS-treated rats) |
| --- | --- | --- | --- | --- | --- | --- |
| tPA: tissue-type plasminogen activator, a plasminogen activator used as thrombolytic agent | prolonged dose-dependently |  |  |  |  |  |
| CC(C)[C@H](NS(=O)(=O)CCCc1ccccc1)P(=O)(O)C[C@H](C(=O)O)c1cccc(CN)c1.O=C(O)C(F)(F)F [TAFI inhibitor, (2S)-2-(3-(amino)methylphenyl)-3-(((1R)-1-(3-phenylpropylsulfonyl)amino-2-methylpropyl)(hydroxy)phosphinoyl)propanoic acid trifluoroacetate] |  | 31.1 ± 3.9 | without further prolongation of bleeding time | not different | prevented LPS-induced recovery of blood CPM and resulted in ^125I retention in the lungs | did not change |
